Data: patent publication US6313310A, “4-and 5-alkynyloxindoles and 4-and 5-alkenyloxindoles” (Hoffmann-La Roche Inc., priority 1999, dated 2001)

Target: rat SAPK (isoform β) (Rattus norvegicus, UniProt P49187)
Assay: SAPK FlashPlate Assay (inhibition of cJun phosphorylation)
Format: biochemical
Conditions: Table I B; for inhibition at 1 µM: Concentration <1.0 μM
Protocol: "IC50 " refers to the concentration of a particular 4- or 5-alkynyloxindole or 4- or 5-alkenyloxindole required to inhibit 50% of cJun phosphorylation, which is a measure of inhibition of SAPK activity. IC50 can be measured, inter alia, using the assay described herein in Example 102.
Human JNK is highly homologous to rat SAPK. To measure the inhibitory activity of test compounds, the compounds were tested in the rat SAPK assay.
For the SAPK assay, purified GST-cJun (a chimeric protein containing cjun, a natural substrate of JNK) was coated on 96 well FlashPlates (New England Nuclear, Boston, Mass.). Purified rat SAPK (isoform β, Kyriakis et al. supra) was preincubated with preparations containing MEKK-1 and MKK4 for 30 minutes at 37° C. in assay buffer containing 25 mM HEPES, pH 7.5, 150 mM NaCl, 20 mM MgCl2, 2 mM DTT, 0.001% Tween 20, 1 μM ATP freshly added. In the preincubation step, MEKK-1 phosphorylates and activates MKK-4, which in turn phosphorylates and activates SAPK. The activated SAPK was then added to the cJun coated FlashPlates along with ^33 P-ATP (0.32 μCi per reaction) and test compounds. The plates were incubated for 30 minutes at 37° C., then washed with PBS, 0.01% Tween 20, and counted in the Topcount scintillation counter (Packard Instrument Co., Downers Grove, Ill.). Dilutions of compounds were tested in duplicate in each assay. The percent inhibition of cJun phosphorylation (a measure of inhibition of SAPK activity) was determined by the following formula: [formula]
where "test compound" refers to the average counts per minute of the test duplicates, "nonspecific" refers to the average counts per minute when no SAPK was added, and "total" refers to the average counts per minute when no compound was added.

Chain of rat SAPK (isoform β) (P49187 whole entry, canonical isoform): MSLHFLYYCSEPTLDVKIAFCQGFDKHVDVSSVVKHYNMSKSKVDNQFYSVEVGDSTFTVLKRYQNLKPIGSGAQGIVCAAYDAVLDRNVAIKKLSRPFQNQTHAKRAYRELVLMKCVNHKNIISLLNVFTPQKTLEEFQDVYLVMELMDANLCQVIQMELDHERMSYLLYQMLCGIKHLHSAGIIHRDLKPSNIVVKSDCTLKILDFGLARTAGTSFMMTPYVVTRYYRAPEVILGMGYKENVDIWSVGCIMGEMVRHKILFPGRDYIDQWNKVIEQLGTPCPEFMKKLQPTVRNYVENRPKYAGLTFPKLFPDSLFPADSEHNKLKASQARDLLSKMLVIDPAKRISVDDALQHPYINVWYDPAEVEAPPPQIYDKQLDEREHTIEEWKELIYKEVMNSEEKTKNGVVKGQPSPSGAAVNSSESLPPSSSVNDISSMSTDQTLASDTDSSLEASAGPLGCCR

`COc1cc[nH]c1/C=C1\C(=O)Nc2cccc(C#CC(O)c3cccn3C)c21` (racemic) [AA, rac-(Z)-1,3-Dihydro-4-[3-hydroxy-3-(1-methyl-pyrrol-2-yl)-1-propynyl]-3-[(3-methoxy-1H-pyrrol-2-yl)methylene]-2H-indol-2-one] was tested, and the inhibition at 1 µM was greater than 50%.

Compound `COc1cc[nH]c1/C=C1\C(=O)Nc2ccc(NC(=O)Cc3cccs3)c(C#Cc3cccnc3)c21` [III] has an inhibition at 0.1 µM (Concentration <0.10 μM) of less than 50%.

With `COc1cc(C(O)C#Cc2cccc3c2/C(=C/c2[nH]ccc2OC)C(=O)N3)ccc1O` (racemic) [O, rac-(Z)-1,3-Dihydro-4-[3-hydroxy-3-(4-hydroxy-3-methoxyphenyl)-1-propynyl]-3-[(3-methoxy-1H-pyrrol-2-yl)methylene]-2H-indol-2-one] the inhibition at 1 µM was greater than 50%.
